Values of other authors in patent US20030171260A1, “Compositions and methods utilizing hydroxamates to scavenge oxidant toxins” (priority 2002, published 2003).
Structures can show the parent of a compound that is named as a salt.

Row | Structure (SMILES) | oral LD50 dose (rat; in vivo, po) | intraperitoneal LD50 dose (rat; intraperitoneal) [mg/kg] | subcutaneous LD50 dose (rat; subcutaneous) | time to leave the vascular space after administration [min]
1 | CCCCOc1ccc(CC(=O)NO)cc1 [bufexamac] | 3,370 mg/kg | 805 | > 5,000 mg/kg | 
2 | CC(=O)N(O)CCCCCNC(=O)CCC(=O)N(O)CCCCCNC(=O)CCC(=O)N(O)CCCCCN [desferoxamine mesylate] |  |  |  | ≤ 60
